Results reported in ChEMBL document CHEMBL4049437, “Benzoisoquinolinediones as Potent and Selective Inhibitors of BRPF2 and TAF1/TAF1L Bromodomains” (J Med Chem, 2017).
Values after ≈ are worked out from the molar mass of the structure shown.

Columns and labels:
[1] = biological target: T1, Bromodomain-containing protein 4 (Homo sapiens, UniProt O60885); test: (§1) Inhibition of BRD4 BD2 (unknown origin) preincubated for 15 mins followed by addition of C-terminal biotinylated synthetic K5,8,12,16 tetra-acetylated histone H4 (1 to 20 residues) peptide as substrate measured after 1 hr by TR-FRET assay
[2] = biological target: Transcription initiation factor TFIID subunit 1 (Homo sapiens, UniProt P21675); test: as §1, with “human GST-tagged TAF1” for “BRD4”, “(1519 to 1651 residues) expressed in Escherichia coli BL21 (DE3)-R3-pRARE2” for “(unknown origin)”
Chain of Transcription initiation factor TFIID subunit 1 (P21675 whole entry, the tested form may be a part): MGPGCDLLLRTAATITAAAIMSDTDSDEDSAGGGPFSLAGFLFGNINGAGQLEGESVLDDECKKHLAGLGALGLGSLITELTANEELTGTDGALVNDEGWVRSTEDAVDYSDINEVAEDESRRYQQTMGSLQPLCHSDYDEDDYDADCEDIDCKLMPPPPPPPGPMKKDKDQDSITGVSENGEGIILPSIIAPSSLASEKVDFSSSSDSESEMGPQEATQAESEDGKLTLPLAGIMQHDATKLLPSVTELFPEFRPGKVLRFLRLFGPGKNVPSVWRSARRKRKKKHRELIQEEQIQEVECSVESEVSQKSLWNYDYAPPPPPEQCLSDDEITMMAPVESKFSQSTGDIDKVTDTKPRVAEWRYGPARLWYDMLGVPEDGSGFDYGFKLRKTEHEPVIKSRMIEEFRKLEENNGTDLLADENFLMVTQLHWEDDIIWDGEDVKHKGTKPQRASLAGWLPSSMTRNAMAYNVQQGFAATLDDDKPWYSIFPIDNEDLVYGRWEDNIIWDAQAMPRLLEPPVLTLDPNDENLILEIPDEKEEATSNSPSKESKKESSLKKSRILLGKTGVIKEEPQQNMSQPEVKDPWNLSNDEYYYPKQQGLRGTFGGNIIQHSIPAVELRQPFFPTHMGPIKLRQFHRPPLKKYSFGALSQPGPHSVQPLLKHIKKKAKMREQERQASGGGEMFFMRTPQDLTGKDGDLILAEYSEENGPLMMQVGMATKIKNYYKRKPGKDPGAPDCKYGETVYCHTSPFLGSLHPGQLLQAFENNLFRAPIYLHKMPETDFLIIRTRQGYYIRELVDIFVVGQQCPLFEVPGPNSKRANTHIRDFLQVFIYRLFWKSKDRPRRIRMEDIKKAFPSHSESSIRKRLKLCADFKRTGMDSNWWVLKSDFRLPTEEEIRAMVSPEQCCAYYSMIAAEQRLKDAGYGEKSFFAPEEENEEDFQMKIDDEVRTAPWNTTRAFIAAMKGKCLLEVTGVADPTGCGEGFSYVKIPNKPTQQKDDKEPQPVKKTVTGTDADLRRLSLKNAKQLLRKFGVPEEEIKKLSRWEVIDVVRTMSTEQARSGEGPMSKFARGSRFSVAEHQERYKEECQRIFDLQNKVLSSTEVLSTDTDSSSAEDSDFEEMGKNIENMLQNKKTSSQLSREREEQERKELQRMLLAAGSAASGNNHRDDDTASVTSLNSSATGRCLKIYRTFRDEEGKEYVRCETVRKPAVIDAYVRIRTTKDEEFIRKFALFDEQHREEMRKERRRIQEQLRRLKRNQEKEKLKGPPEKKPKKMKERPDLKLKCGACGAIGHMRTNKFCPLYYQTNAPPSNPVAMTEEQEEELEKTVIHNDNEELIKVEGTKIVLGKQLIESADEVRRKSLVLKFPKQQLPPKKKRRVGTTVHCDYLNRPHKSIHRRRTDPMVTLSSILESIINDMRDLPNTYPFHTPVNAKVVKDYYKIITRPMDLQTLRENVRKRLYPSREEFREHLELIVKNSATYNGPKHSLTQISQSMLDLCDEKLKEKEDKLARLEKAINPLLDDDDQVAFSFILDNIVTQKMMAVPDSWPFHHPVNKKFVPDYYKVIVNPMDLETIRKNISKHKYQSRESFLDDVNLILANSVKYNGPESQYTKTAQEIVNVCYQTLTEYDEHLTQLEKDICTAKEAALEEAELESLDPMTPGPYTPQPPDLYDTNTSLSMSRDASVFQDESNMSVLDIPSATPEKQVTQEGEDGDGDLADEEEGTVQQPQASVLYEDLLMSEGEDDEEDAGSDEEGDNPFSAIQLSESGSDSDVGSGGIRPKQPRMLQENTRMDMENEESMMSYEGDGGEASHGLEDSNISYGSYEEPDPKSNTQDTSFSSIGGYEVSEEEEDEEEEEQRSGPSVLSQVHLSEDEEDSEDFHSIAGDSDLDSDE

[3] = biological target: T1, Bromodomain-containing protein 4
Peregrin = biological target: T2, Peregrin (Homo sapiens, UniProt P55201); test: Inhibition of His-tagged BRPF1 (626 to 740 residues) (unknown origin) preincubated for 15 mins followed by addition of C-terminal biotinylated synthetic K5,12 diacetylated histone H4 (1 to 20 residues) peptide as substrate measured after 1 hr by TR-FRET assay
T2 sequence (P55201 whole entry): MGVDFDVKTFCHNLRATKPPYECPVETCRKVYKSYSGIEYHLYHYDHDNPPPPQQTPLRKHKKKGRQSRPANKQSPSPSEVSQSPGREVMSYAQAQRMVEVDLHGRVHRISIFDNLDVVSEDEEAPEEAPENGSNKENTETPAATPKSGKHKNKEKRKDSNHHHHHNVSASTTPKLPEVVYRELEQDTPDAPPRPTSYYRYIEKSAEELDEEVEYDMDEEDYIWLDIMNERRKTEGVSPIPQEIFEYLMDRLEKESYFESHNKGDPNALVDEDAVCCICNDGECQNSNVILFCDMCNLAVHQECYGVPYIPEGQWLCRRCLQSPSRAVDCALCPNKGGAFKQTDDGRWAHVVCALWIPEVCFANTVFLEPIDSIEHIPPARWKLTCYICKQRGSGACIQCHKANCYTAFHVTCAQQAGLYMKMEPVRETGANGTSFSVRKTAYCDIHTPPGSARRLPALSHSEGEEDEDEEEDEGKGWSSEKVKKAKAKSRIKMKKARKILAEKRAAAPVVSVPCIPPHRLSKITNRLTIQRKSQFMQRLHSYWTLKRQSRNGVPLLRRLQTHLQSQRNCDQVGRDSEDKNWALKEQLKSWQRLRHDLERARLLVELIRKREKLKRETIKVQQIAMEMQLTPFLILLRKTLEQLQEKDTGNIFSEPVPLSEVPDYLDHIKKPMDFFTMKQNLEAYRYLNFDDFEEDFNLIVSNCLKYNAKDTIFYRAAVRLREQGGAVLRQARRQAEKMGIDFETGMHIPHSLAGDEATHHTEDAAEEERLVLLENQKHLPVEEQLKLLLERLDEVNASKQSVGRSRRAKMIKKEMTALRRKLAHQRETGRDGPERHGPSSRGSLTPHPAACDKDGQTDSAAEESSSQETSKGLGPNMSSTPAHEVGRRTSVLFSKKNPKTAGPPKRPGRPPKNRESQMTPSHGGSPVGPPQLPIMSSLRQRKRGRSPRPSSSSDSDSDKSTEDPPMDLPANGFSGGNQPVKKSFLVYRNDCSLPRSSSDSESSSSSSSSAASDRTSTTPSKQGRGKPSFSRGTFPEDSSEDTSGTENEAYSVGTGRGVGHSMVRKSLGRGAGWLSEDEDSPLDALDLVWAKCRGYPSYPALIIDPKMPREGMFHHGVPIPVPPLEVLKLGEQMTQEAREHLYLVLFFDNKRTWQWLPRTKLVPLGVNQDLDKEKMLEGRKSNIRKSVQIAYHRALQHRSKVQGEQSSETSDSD

[4] = biological target: T3, Bromodomain-containing protein 1 (Homo sapiens, UniProt O95696); test: Inhibition of human BRPF2 (563 to 688 residues) expressed in Escherichia coli BL21 (DE3)-R3-pRARE2 preincubated for 15 mins followed by addition of C-terminal biotinylated synthetic K5,12 diacetylated histone H4 (1 to 20 residues) peptide as substrate measured after 1 hr by TR-FRET assay
T3 sequence (O95696 whole entry): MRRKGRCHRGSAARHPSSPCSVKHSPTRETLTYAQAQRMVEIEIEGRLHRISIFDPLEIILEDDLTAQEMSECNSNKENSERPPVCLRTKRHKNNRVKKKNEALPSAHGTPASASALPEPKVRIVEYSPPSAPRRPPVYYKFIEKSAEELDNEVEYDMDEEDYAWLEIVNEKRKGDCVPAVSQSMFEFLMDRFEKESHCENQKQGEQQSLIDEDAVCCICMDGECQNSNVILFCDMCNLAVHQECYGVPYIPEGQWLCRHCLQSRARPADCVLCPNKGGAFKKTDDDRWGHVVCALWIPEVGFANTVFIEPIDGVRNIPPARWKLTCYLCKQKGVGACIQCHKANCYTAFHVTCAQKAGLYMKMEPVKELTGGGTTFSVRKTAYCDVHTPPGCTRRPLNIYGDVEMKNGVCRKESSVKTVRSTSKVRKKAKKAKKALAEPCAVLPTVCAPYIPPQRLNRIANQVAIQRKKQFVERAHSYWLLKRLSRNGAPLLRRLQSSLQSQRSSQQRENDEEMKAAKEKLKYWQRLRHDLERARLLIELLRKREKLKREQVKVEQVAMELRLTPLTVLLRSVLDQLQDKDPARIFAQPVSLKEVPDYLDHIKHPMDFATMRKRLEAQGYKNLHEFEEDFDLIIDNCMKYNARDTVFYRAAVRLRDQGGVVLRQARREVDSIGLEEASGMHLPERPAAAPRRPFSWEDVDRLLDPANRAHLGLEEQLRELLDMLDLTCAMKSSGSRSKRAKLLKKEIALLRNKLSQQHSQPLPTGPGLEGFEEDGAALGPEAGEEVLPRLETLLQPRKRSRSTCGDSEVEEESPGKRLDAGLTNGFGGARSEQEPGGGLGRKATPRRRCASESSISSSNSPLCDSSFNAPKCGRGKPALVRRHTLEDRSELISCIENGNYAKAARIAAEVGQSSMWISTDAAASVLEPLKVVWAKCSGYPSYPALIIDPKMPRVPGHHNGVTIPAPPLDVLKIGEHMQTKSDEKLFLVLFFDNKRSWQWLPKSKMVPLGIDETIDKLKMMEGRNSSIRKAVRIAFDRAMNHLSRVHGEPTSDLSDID

[5] = Aqueous solubility of the compound in DMSO at pH 6.5 after 24 hrs by HPLC-MS/MS analysis; assay type: physicochemical; conditions: pH 6.5, 24 h
[6] = biological target: T3, Bromodomain-containing protein 1

SMILES	IC50 [1] [nM]	IC50 [2] [nM]	IC50 [3] [nM]	IC50 (Peregrin) [nM]	IC50 [4] [nM]	solubility [5]	IC50 [6] [nM]
Cc1cc2c(cc1N1C(=O)c3cccc4cc([N+](=O)[O-])cc(c34)C1=O)n(C)c(=O)n2C	> 20000	58	> 20000	185	82		
Cc1cc2c(cc1N1C(=O)c3cccc4c(N5CCCCC5)ccc(c34)C1=O)n(C)c(=O)n2C		7		13300	95	Insoluble	> 10000
Cc1cc2c(cc1N1C(=O)c3cccc4c(N5CCN(CCN(C)C)CC5)ccc(c34)C1=O)n(C)c(=O)n2C	> 15000	25	> 13000	1270	74	159 µg/mL (≈ 302 µM)	420
Cc1cc2c(cc1N1C(=O)c3cccc4c(N5CCCC5)ccc(c34)C1=O)n(C)c(=O)n2C	> 15000		15500	4540	126	0.1 µg/mL (≈ 0.227 µM)	> 10000
Cc1cc2c(cc1N1C(=O)c3cccc4c(N5CCN(CC6CC6)CC5)ccc(c34)C1=O)n(C)c(=O)n2C		14	> 9600	1220	80	139 µg/mL (≈ 273 µM)	863
Cc1cc2c(cc1N1C(=O)c3cccc4c(N5CCOCC5)ccc(c34)C1=O)n(C)c(=O)n2C	> 15000	90	> 16600	3310	61	0.2 µg/mL (≈ 0.438 µM)	613
Cc1cc2c(cc1N1C(=O)c3cccc4cc(C#N)cc(c34)C1=O)n(C)c(=O)n2C	> 20000	22	> 20000	2230	248		
Cc1cc2c(cc1N1C(=O)c3cccc4c(Br)ccc(c34)C1=O)n(C)c(=O)n2C	> 20000	4	> 9500	591	51		
Cc1cc2c(cc1N1C(=O)c3cccc4c(CCCCO)ccc(c34)C1=O)n(C)c(=O)n2C	> 15000	7	> 11900	2300	70	10 µg/mL (≈ 22.5 µM)	
COC1CCN(c2ccc3c4c(cccc24)C(=O)N(c2cc4c(cc2C)n(C)c(=O)n4C)C3=O)CC1	> 15000	15	> 14000	4820	53	0.1 µg/mL (≈ 0.206 µM)	915
CN(C)c1cc2c(cc1N1C(=O)c3cccc4cccc(c34)C1=O)n(C)c(=O)n2C	> 20000	55	> 20000	630	100		
Cc1cc2c(cc1N1C(=O)c3cccc4c(N(C)CCN5CCCC5)ccc(c34)C1=O)n(C)c(=O)n2C	> 15000	6	> 11500	1310	84	334 µg/mL (≈ 671 µM)	941
Cc1cc2c(cc1N1C(=O)c3cccc4cc(N)cc(c34)C1=O)n(C)c(=O)n2C	> 20000	33	> 9950	5510	63		
Cn1c(=O)n(C)c2cc(N3C(=O)c4cccc5cccc(c45)C3=O)c(Br)cc21	> 20000	87	> 20000	855	153		
Cc1cc2c(cc1N1C(=O)c3cccc4cc(Br)cc(c34)C1=O)n(C)c(=O)n2C	> 20000	17	> 17000	1900	124		
Cc1cc2c(cc1N1C(=O)c3cccc4cc(O)cc(c34)C1=O)n(C)c(=O)n2C	> 20000	13	> 14200	3690	102		
CN1CCN(c2cc3c(cc2N2C(=O)c4cccc5cccc(c45)C2=O)n(C)c(=O)n3C)CC1	> 20000	1500	> 20000	578	366		
